Data: patent US4753953A, “Pyridonecarboxylic acid derivatives and antibacterial pharmaceutical compositions thereof” (priority 1985, dated 1988)
Converted amounts (≈) assume the structure as drawn. Like-named read-outs stand apart in the source and are kept apart here.

Experiments:
Assay in all cases: MIC, in vitro antibacterial activity (standard strains)
[1] = system: P. aeruginosa IFO 12689; format: cell-based, Pseudomonas aeruginosa; conditions: Pseudomonas aeruginosa, IFO12689; 10^6 cells/ml; Gram -; read-out: MIC
[2] = system: P. maltophilia GIFU 2491; format: cell-based; conditions: Stenotrophomonas maltophilia, GIFU2491
[3] = system: Pst. micros UPI 5464-1; format: cell-based; conditions: Parvimonas micra, UPI54641; 10^6 cells/ml; Gram +; read-out: MIC
[4] = system: E. coli ML 4707; format: cell-based, Escherichia coli; conditions: Escherichia coli, ML4707, 10^6 cells/ml; Gram -; Table 1; read-out: MIC
[5] = system: F. necrophorum S-45; format: cell-based; conditions: Fusobacterium necrophorum, S45; 10^6 cells/ml; Gram -; read-out: MIC
[6] = system: Veillonella parvula KYA 10790; format: cell-based; conditions: Veillonella parvula, KYA10790; 10^6 cells/ml; Gram -; read-out: MIC
[7] = system: E. limosum KYA 8486; format: cell-based; conditions: Eubacterium limosum, KYA8486; 10^6 cells/ml; Gram +; read-out: MIC
[8] = system: Bacillus subtilis PCI 219; format: cell-based; conditions: Bacillus subtilis, PCI219; 10^6 cells/ml; Gram +; read-out: MIC
[9] = system: S. pneumoniae IID 552; format: cell-based; conditions: Streptococcus pneumoniae, IID552; 10^6 cells/ml; Gram +; read-out: MIC
[10] = system: Clostridium difficile I-E; format: cell-based; conditions: Clostridioides difficile; 10^6 cells/ml; Gram +
[11] = system: Peptococcus magnus KY 017; format: cell-based; conditions: Finegoldia magna, KY017; 10^6 cells/ml; Gram +; read-out: MIC
[12] = system: B. vulgatus KYA 29327; format: cell-based; conditions: Phocaeicola vulgatus, KYA29327; 10^6 cells/ml; Gram -; read-out: MIC
[13] = system: S. aureus IID 670 (Terajima); format: cell-based, Staphylococcus aureus; conditions: Staphylococcus aureus, IID670; 10^6 cells/ml; Gram +; read-out: MIC
[14] = system: Propionibacterium acens 11828; format: cell-based; conditions: Propionibacterium, 11828; 10^6 cells/ml; Gram +; read-out: MIC
[15] = system: Acinetobacter anitratus IID 876; format: cell-based; conditions: Acinetobacter calcoaceticus, IID876; 10^6 cells/ml; Gram -; read-out: MIC
[16] = system: Escherichia coli NIHJ JC-2; format: cell-based; conditions: Escherichia coli, NIHJJC2
[17] = system: K. pneumoniae 1-220S; format: cell-based, Klebsiella pneumoniae; conditions: Klebsiella pneumoniae, 1220S; 10^6 cells/ml; Gram -; read-out: MIC
[18] = 10^6 cells/ml, Gram -, read-out: MIC

| Structure (SMILES) | MIC [1] [µg/mL] | MIC [2, 18] [µg/mL] | MIC [3] [µg/mL] | MIC [4] [µg/mL] | MIC [5] [µg/mL] | MIC [6] [µg/mL] | MIC [7] [µg/mL] | MIC [8] [µg/mL] | MIC [9] [µg/mL] | MIC [10] [µg/mL] | MIC [11] [µg/mL] | MIC [12] [µg/mL] | MIC [13] [µg/mL] | MIC [14] [µg/mL] | MIC [15] [µg/mL] | MIC [16, 18] [µg/mL] | MIC [17] [µg/mL] | MIC [2] [µg/mL] | MIC [16] [µg/mL] |
| --- | --- | --- | --- | --- | --- | --- | --- | --- | --- | --- | --- | --- | --- | --- | --- | --- | --- | --- | --- |
| C[C@H]1CN(c2c(F)cc3c(=O)c(C(=O)O)cn4c3c2OC[C@@H]4C)C[C@H]1N.Cl (mixture of isomers) [Example 31, (3S)-10-(cis-3-Amino-4-methyl-1-pyrrolidinyl)-9-fluoro-2,3-dihydro-3-methyl-7-oxo-7H-pyrido[1,2,3-de][1,4]benzoxazine-6-carboxylic acid hydrochloride] | 0.78 | 0.78 | 0.2 | 0.025 | 0.39 | 0.2 | 3.13 | 0.05 | 0.2 | 3.13 | 0.2 | 3.13 | 0.2 | 6.25 | 1.56 | 0.025 | 0.1 | – | – |
| C[C@@H]1CN(c2c(F)cc3c(=O)c(C(=O)O)cn(C4CC4)c3c2F)C[C@H]1N (relative stereo) [Example 18, 7-(trans-3-Amino-4-methyl-1-pyrrolidinyl)-1-cyclopropyl-6,8-difluoro-1,4-dihydro-4-oxo-3-quinolinecarboxylic acid] | 0.39 (≈ 1.07 µM) | – | 0.1 (≈ 0.275 µM) | 0.0063 (≈ 0.0173 µM) | 0.2 (≈ 0.55 µM) | 0.1 (≈ 0.275 µM) | – | 0.025 (≈ 0.0688 µM) | 0.05 (≈ 0.138 µM) | 1.56 | 0.05 (≈ 0.138 µM) | 0.39 (≈ 1.07 µM) | 0.2 (≈ 0.55 µM) | 1.56 (≈ 4.29 µM) | 0.025 (≈ 0.0688 µM) | 0.0063 (≈ 0.0173 µM) | 0.025 (≈ 0.0688 µM) | 0.05 (≈ 0.138 µM) | – |
| C[C@H]1CN(c2c(F)cc3c(=O)c(C(=O)O)cn(C4CC4)c3c2F)C[C@H]1N.Cl (relative stereo) [Example 20, 7-(cis-3-Amino-4-methyl-1-pyrrolidinyl)-1-cyclopropyl-6,8-difluoro-1,4-dihydro-4-oxo-3-quinolinecarboxylic acid hydrochloride] | 0.39 | 0.39 | 0.2 | 0.025 | 0.39 | 0.2 | – | 0.025 | 0.2 | 1.56 | 0.2 | 0.39 | 0.05 | 3.13 | 0.05 | – | 0.05 | – | 0.0125 |
| C[C@H]1CN(c2c(F)cc3c(=O)c(C(=O)O)cn(C4CC4)c3c2Br)C[C@H]1N (relative stereo) [Example 21, 7-(cis-3-Amino-4-methyl-1-pyrrolidinyl)-8-bromo-1-cyclopropyl-6-fluoro-1,4-dihydro-4-oxo-3-quinolinecarboxylic acid] | 0.78 (≈ 1.84 µM) | 0.05 (≈ 0.118 µM) | 0.1 (≈ 0.236 µM) | 0.0125 (≈ 0.0295 µM) | 0.1 (≈ 0.236 µM) | 0.1 (≈ 0.236 µM) | – | 0.0125 (≈ 0.0295 µM) | 0.2 (≈ 0.471 µM) | 0.39 | 0.05 (≈ 0.118 µM) | 0.1 (≈ 0.236 µM) | 0.05 (≈ 0.118 µM) | 1.56 (≈ 3.68 µM) | 0.025 (≈ 0.0589 µM) | 0.0063 (≈ 0.0148 µM) | 0.05 (≈ 0.118 µM) | – | – |
| CCn1cc(C(=O)O)c(=O)c2cc(F)c(N3C[C@@H](N)[C@@H](C)C3)c(F)c21 (relative stereo) [Example 22, 7-(cis-3-Amino-4-methyl-1-pyrrolidinyl)-1-ethyl-6,8-difluoro-1,4-dihydro-4-oxo-3-quinolinecarboxylic acid] | 1.56 (≈ 4.44 µM) | 0.78 (≈ 2.22 µM) | 0.78 (≈ 2.22 µM) | 0.05 (≈ 0.142 µM) | 3.13 (≈ 8.91 µM) | 0.78 (≈ 2.22 µM) | 6.25 (≈ 17.8 µM) | 0.05 (≈ 0.142 µM) | 0.78 (≈ 2.22 µM) | 6.25 | 1.56 (≈ 4.44 µM) | 3.13 (≈ 8.91 µM) | 0.2 (≈ 0.569 µM) | 25 (≈ 71.2 µM) | 0.39 (≈ 1.11 µM) | 0.05 (≈ 0.142 µM) | 0.1 (≈ 0.285 µM) | – | – |
